Experimental data taken from US10875876B2, “Cyclized sulfamoylarylamide derivatives and the use thereof as medicaments for the treatment of hepatitis B” (priority 2015, dated 2020).
pEC50: −log10 of the molar value. Like-named read-outs stand apart in the source and are kept apart here.

How the values were obtained:
[1] = Cytotoxicity in HepG2 cells, Resazurin assay; settings: human, HepG2 cells, TOX-HepG2-4 d CC50 (μM), HepG2 cells incubated for 4 days, viability by Resazurin assay
HBV = experiment: anti HBV activity, HepG2.117 cell line, intracellular HBV DNA by realtime PCR; format: cell-based; settings: HepG2.117 cell line (Tet-off), 3 days of treatment, intracellular HBV DNA quantified by realtime PCR, read-out: HBV-AVE-HepG2.117 EC50
Procedure: The anti HBV activity was measured using the HepG2.117 cell line, a stable, inducibly HBV producing cell line, which replicates HBV in the absence of doxicycline (Tet-off system). For the antiviral assay, HBV replication was induced, followed by a treatment with serially diluted compound in 96-well plates in duplicate. After 3 days of treatment, the antiviral activity was determined by quantification of intracellular HBV DNA using realtime PCR and an HBV specific primer set and probe.

[2] = Hepatitis B virus, HepG2.117, 72 h

Structure (SMILES)	CC50 at 4 days [1] [µM]	pEC50 (HBV; [2])	pEC50 (HBV)
Cn1cc2c(c1C(=O)Nc1ccc(F)c(F)c1)OCC(C1CCN(C(=O)OC(C)(C)C)CC1)NS2(=O)=O (stereo not drawn) [Compound 72, tert-butyl 4-[6-[(3,4-difluorophenyl)carbamoyl]-7-methyl-1,1-dioxo-3,4-dihydro-2H-pyrrolo[3,4-b][1,4,5]oxathiazepin-3-yl]piperidine-1-carboxylate]	> 25	7.30	–
CC(C)C1C=Cc2c(cn(C)c2C(=O)Nc2ccc(F)c(C(F)F)c2)S(=O)(=O)N1 (stereo not drawn) [Compound 82, N-[3-(difluoromethyl)-4-fluoro-phenyl]-3-isopropyl-7-methyl-1,1-dioxo-2,3-dihydropyrrolo[3,4-f]thiazepine-6-carboxamide]	> 25	8.40	–
Cc1cc(NC(=O)c2c3c(cn2C)S(=O)(=O)N[C@@H]([C@H](C)O)CO3)ccc1F [Compound 200, (3R)—N-(4-fluoro-3-methyl-phenyl)-3-[(1S)-1-hydroxyethyl]-7-methyl-1,1-dioxo-3,4-dihydro-2H-pyrrolo[3,4-b][1,4,5]oxathiazepine-6-carboxamide]	> 25	7.08	–
C[C@H](O)[C@H]1COc2c(cn(C)c2C(=O)Nc2ccnc(Br)c2)S(=O)(=O)N1 [Compound 66, (3R)—N-(2-bromo-4-pyridyl)-3-[(1S)-1-hydroxyethyl]-7-methyl-1,1-dioxo-3,4-dihydro-2H-pyrrolo[3,4-b][1,4,5]oxathiazepine-6-carboxamide]	> 25	7.33	–
CC1CCc2c(nn(C)c2C(=O)Nc2ccc(F)c(F)c2)S(=O)(=O)N1 (stereo not drawn) [compound 246]	> 25	< 6.89	–
C[C@@H]1Oc2c(cn(C)c2C(=O)Nc2ccc(F)c(C(F)F)c2)S(=O)(=O)N[C@@H]1CO [compound 234]	> 25	< 6.30	–
Cn1cc2c(c1C(=O)Nc1ccc(F)c(F)c1)OCC1(CC1)NS2(=O)=O [Compound 19, N-(3,4-difluorophenyl)-7-methyl-1,1-dioxo-spiro[2,4-dihydropyrrolo-[3,4-b][1,4,5]oxathiazepine-3,1′-cyclopropane]-6-carboxamide]	> 25	6.72	–
CC(NCC(F)(F)F)C1CCc2c(cn(C)c2C(=O)Nc2cc(F)c(F)c(F)c2)S(=O)(=O)N1 (single isomer, unassigned) [Compound 218c, 7-methyl-1,1-dioxo-3-[1-(2,2,2-trifluoroethylamino)ethyl]-N-(3,4,5-trifluorophenyl)-2,3,4,5-tetrahydropyrrolo[3,4-f]thiazepine-6-carboxamide]	> 25	–	8.22
Cn1cc2c(c1C(=O)Nc1ccc(F)c(C#N)c1)OC[C@](C)(Cc1ccccc1)NS2(=O)=O [Compound 156, (3S)-3-benzyl-N-(3-cyano-4-fluoro-phenyl)-3,7-dimethyl-1,1-dioxo-2,4-dihydropyrrolo[3,4-b][1,4,5]oxathiazepine-6-carboxamide]	> 25	8.05	–
Cc1cc(NC(=O)c2c3c(cn2C)S(=O)(=O)NC(C(C)C)CC3)ccc1F (stereo not drawn) [Compound 109, N-(4-fluoro-3-methyl-phenyl)-3-isopropyl-7-methyl-1,1-dioxo-2,3,4,5-tetrahydropyrrolo[3,4-f]thiazepine-6-carboxamide]	> 25	8.52	–
COCOC(c1ccccn1)C1COc2c(cn(C)c2C(=O)Nc2ccc(F)c(F)c2)S(=O)(=O)N1 (stereo not drawn) [Compound 129, N-(3,4-difluorophenyl)-3-[methoxymethoxy(2-pyridyl)methyl]-7-methyl-1,1-dioxo-3,4-dihydro-2H-pyrrolo[3,4-b][1,4,5]oxathiazepine-6-carboxamide]	> 25	7.92	–
Cc1cc(NC(=O)c2c3c(cn2C)S(=O)(=O)N[C@@H](C)CC3)ccc1F (single isomer, unassigned) [Compound 41, (3*S)—N-(4-fluoro-3-methyl-phenyl)-3,7-dimethyl-1,1-dioxo-2,3,4,5-tetrahydropyrrolo[3,4-f]thiazepine-6-carboxamide]	> 25	8.10	–
CC(C)C1CCc2c(cn(C)c2C(=O)Nc2ccc(F)c(F)c2)S(=O)(=O)N1 (stereo not drawn) [Compound 81, N-(3,4-difluorophenyl)-3-isopropyl-7-methyl-1,1-dioxo-2,3,4,5-tetrahydropyrrolo[3,4-f]thiazepine-6-carboxamide]	> 25	8.70	–
Cn1cc2c(c1C(=O)Nc1ccc(F)c(Cl)c1)OCC(C)(Cc1ccc(Cl)nc1)NS2(=O)=O (stereo not drawn) [Compound 198, N-(3-chloro-4-fluoro-phenyl)-3-[(6-chloro-3-pyridyl)methyl]-3,7-dimethyl-1,1-dioxo-2,4-dihydropyrrolo[3,4-b][1,4,5]oxathiazepine-6-carboxamide]	> 25	7.96	–
Cc1cc(CC2(C)COc3c(cn(C)c3C(=O)Nc3ccc(F)c(F)c3)S(=O)(=O)N2)n(C)n1 (single isomer, unassigned) [Compound 175a, N-(3,4-difluorophenyl)-3-[(2,5-dimethylpyrazol-3-yl)methyl]-3,7-dimethyl-1,1-dioxo-2,4-dihydropyrrolo[3,4-b][1,4,5]oxathiazepine-6-carboxamide]	> 22.9	–	7.68
CCC(O)[C@@H]1COc2c(cn(C)c2C(=O)Nc2ccc(F)c(F)c2)S(=O)(=O)N1 (single isomer, unassigned) [Compound 142a, N-(3,4-difluorophenyl)-3-(1-hydroxypropyl)-7-methyl-1,1-dioxo-3,4-dihydro-2H-pyrrolo[3,4-b][1,4,5]oxathiazepine-6-carboxamide]	> 25	7.19	–
C[C@H](O)[C@@H]1COc2c(cn(C)c2C(=O)Nc2ccc(F)c(F)c2)S(=O)(=O)N1 [Compound 37, (3S)—N-(3,4-difluorophenyl)-3-[(1S)-1-hydroxyethyl]-7-methyl-1,1-dioxo-3,4-dihydro-2H-pyrrolo[3,4-b][1,4,5]oxathiazepine-6-carboxamide]	> 25	6.70	–
Cn1cc2c(c1C(=O)Nc1ccc(F)c(F)c1)OC[C@@H](C(O)C1CC1)NS2(=O)=O (single isomer, unassigned) [Compound 92a]	> 24	–	7.51
Cc1cc(NC(=O)c2c3c(cn2C)S(=O)(=O)N[C@@H](C(O)C2CC2)CO3)ccc1F (single isomer, unassigned) [Compound 206a, 3-[cyclopropyl(hydroxy)methyl]-N-(4-fluoro-3-methyl-phenyl)-7-methyl-1,1-dioxo-3,4-dihydro-2H-pyrrolo[3,4-b][1,4,5]oxathiazepine-6-carboxamide]	> 25	7.89	–
Cn1cc2c(c1C(=O)Nc1ccc(F)c(F)c1)OCC(C)(Cc1cccnc1)NS2(=O)=O (single isomer, unassigned) [Compound 199a, N-(3,4-difluorophenyl)-3,7-dimethyl-1,1-dioxo-3-(3-pyridylmethyl)-2,4-dihydropyrrolo[3,4-b][1,4,5]oxathiazepine-6-carboxamide]	> 25	–	7.52
CC(C)[C@@H]1COc2c(ccc(F)c2C(=O)Nc2ccc(F)c(F)c2)S(=O)(=O)N1 [Compound 48, (3R)—N-(3,4-difluorophenyl)-7-fluoro-3-isopropyl-1,1-dioxo-3,4-dihydro-2H-5,1λ^6,2-benzoxathiazepine-6-carboxamide]	> 25	7.08	–
Cn1cc2c(c1C(=O)Nc1ccc(F)c(F)c1)OC[C@H](C(C)(C)O)NS2(=O)=O [Compound 93, (3R)—N-(3,4-difluorophenyl)-3-(1-hydroxy-1-methyl-ethyl)-7-methyl-1,1-dioxo-3,4-dihydro-2H-pyrrolo[3,4-b][1,4,5]oxathiazepine-6-carboxamide]	> 25	7.92	–
Cn1cc2c(c1C(=O)Nc1ccc(F)c(C#N)c1)CCC(C(C)(F)F)NS2(=O)=O (stereo not drawn) [Compound 118, N-(3-cyano-4-fluoro-phenyl)-3-(1,1-difluoroethyl)-7-methyl-1,1-dioxo-2,3,4,5-tetrahydropyrrolo[3,4-f]thiazepine-6-carboxamide]	> 25	7.89	–
Cn1cc2c(c1C(=O)Nc1ccc(F)c(F)c1)OCC(C(O)c1cccnc1)NS2(=O)=O (stereo not drawn) [Compound 95, N-(3,4-difluorophenyl)-3-[hydroxy(3-pyridyl)methyl]-7-methyl-1,1-dioxo-3,4-dihydro-2H-pyrrolo[3,4-b][1,4,5]oxathiazepine-6-carboxamide]	> 25	7.66	–
Cn1ccc(C2(C)COc3c(cn(C)c3C(=O)Nc3ccc(F)c(F)c3)S(=O)(=O)N2)n1 (racemic) [Compound 192, N-(3,4-difluorophenyl)-3,7-dimethyl-3-(1-methylpyrazol-3-yl)-1,1-dioxo-2,4-dihydropyrrolo[3,4-b][1,4,5]oxathiazepine-6-carboxamide]	> 25	7.25	–
CCC(O)[C@@H]1COc2c(cn(C)c2C(=O)Nc2ccc(F)c(F)c2)S(=O)(=O)N1 (stereo in doubt) [Compound 142b, N-(3,4-difluorophenyl)-3-(1-hydroxypropyl)-7-methyl-1,1-dioxo-3,4-dihydro-2H-pyrrolo[3,4-b][1,4,5]oxathiazepine-6-carboxamide]	> 25	< 6.90	–
Cn1cc2c(c1C(=O)Nc1cc(F)c(F)c(F)c1)CCC1(COC1)NS2(=O)=O [Compound 136, 7-methyl-1,1-dioxo-N-(3,4,5-trifluorophenyl)spiro[4,5-dihydro-2H-pyrrolo[3,4-f]thiazepine-3,3′-oxetane]-6-carboxamide]	> 25	7.80	–
